The values below come from patent US12473298B2, “Amide compounds, preparation method therefor, and use thereof in the medical field” (Shanghai Synergy Pharmaceutical Sciences Co., Ltd., priority 2019, dated 2025).

Broadly, the bioavailability is the share of a dose that reaches the circulation, judged against a reference dose that is usually intravenous.

In one data set the target is wild-type EZH2 (Homo sapiens (Human), UniProt Q15910). Kind of data set: radiometric assay, activity to wild-type EZH2 of PRC2.
Data set [1] has as its system human diffuse large cell lymphoma B lymphocytes (Pfeiffer cell). Kind of data set: Pfeiffer cell proliferation, Calcein AM staining. The data set is classed as cell-based. The settings on record: Homo sapiens, Pfeiffer; for pIC50: data of 14th day, read-out: Pfeiffer Proliferation IC50 Nanomoles per Liter.
Description: The diffuse large cell lymphoma B lymphocytes (Pfeiffer cells) were collected and counted when growing well.
In data set [2] the test system is human diffuse large B-cell lymphoma cells (Karpas 422 cell). Kind of data set: Karpas 422 cell proliferation, Calcein AM staining. Format: cell-based. The settings on record: Homo sapiens; for pIC50: KARPAS-422, data of 14th day, read-out: Karpas422 Proliferation IC50 Nanomoles per Liter.
A further data set addresses Mutant type EZH2(Y641N) (Homo sapiens (Human), UniProt Q15910, Y641N). As to the kind of experiment: AlphaLISA, mutant type PRC2 complex EZH2(Y641N). The settings on record: read-out: Mutant type EZH2(Y641N) IC50 Nanomoles per Liter. Format: biochemical. Background: In Alpha technology, singlet oxygen from a donor bead excites a nearby acceptor bead.
The target in a further data set is Mutant type EZH2(A677G) (Homo sapiens (Human), UniProt Q15910, A677G). Kind of data set: AlphaLISA, mutant type PRC2 complex EZH2(A677G). The data set is classed as biochemical.
The target in another data set is Mutant type EZH2(Y641F) (Homo sapiens (Human), UniProt Q15910, Y641F). As to the kind of experiment: AlphaLISA, mutant type PRC2 complex EZH2(Y641F). The settings on record: read-out: Mutant type EZH2(Y641F) IC50 Nanomoles per Liter. The data set is classed as biochemical.
Data set [3] in a line: Pharmacokinetic experiment in rats. The data set is classed as in vivo, SD rats. As to the method:
A certain amount of compound was weighted and dissolved in 0.1% Tween under vortex and ultrasound, and 0.5% carboxymethyl cellulose sodium (CMC-NA) solution was added to form a uniform solution.

Setting [4] is: read-out: Mutant type EZH2(A677G) IC59 Nanomoles per Liter.
Where [5] appears, read: read-out: Wild-type EZH2 IC50 Nanomoles per Liter.
[6] abbreviates: male, SD, rat, plasma, rats, Intravenous-Dose 4 mg/kg, read-out: Area Curve (AUC, ng/mL · h).
Setting [7] is: male, SD, rat, plasma; rats, Intravenous-Dose 4 mg/kg; read-out: Half life T1/2, h) (converted).
The mark [8] stands for this setting: male, SD, rat, plasma, rats, Oral-Dose 20 mg/kg, read-out: Area Curve (AUC, ng/mL · h).
The mark [9] stands for this setting: male, SD, rat, plasma, rats, Oral-Dose 20 mg/kg, read-out: Blood Drug level (Cmax, ng/mL).
Where [10] appears, read: male, SD, rat, plasma, rats, oral 20 mg/kg vs intravenous 4 mg/kg, read-out: Bioavailability (P %).
[11] abbreviates: male, SD, rat, in vivo, iv, 4 mg/kg.
[12] abbreviates: male, SD, rat, in vivo, po, 20 mg/kg.

pIC50: −log10 of the molar value. Read-outs that look alike come from different tables or passages of the source.

Sequence of Mutant type EZH2(Y641F) (Q15910 whole entry Y641F): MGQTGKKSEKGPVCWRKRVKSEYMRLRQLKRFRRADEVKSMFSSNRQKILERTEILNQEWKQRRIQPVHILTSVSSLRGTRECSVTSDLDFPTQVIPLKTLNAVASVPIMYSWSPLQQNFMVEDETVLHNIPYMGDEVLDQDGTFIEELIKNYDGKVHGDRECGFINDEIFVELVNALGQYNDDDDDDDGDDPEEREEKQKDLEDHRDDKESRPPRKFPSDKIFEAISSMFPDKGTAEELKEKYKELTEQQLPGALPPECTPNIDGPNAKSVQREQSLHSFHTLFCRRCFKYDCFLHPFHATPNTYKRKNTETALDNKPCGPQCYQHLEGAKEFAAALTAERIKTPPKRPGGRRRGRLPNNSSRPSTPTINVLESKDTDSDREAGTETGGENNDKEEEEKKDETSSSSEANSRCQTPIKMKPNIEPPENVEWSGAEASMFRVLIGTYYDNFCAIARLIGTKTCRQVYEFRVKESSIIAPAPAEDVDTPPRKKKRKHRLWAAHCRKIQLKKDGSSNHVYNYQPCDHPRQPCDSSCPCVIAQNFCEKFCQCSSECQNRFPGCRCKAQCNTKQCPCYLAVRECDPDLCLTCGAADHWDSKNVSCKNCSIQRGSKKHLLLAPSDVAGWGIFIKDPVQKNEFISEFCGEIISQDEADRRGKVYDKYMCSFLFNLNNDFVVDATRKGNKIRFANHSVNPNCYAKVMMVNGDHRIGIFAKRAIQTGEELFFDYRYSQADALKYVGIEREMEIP
Sequence of Mutant type EZH2(Y641F) (O75530 whole entry partner): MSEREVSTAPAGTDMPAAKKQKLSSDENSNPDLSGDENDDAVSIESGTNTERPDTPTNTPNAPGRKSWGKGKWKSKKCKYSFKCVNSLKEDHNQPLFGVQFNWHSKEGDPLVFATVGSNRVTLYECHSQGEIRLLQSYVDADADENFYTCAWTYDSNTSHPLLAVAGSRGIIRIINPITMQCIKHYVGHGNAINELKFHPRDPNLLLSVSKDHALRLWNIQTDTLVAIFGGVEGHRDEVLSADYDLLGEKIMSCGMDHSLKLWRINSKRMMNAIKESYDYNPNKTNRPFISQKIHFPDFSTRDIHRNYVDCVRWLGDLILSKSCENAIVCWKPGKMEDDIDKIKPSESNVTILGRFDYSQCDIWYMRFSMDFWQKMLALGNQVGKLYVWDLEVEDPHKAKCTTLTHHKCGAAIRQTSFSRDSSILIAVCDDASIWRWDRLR
Sequence of Mutant type EZH2(Y641F) (Q15022 whole entry partner): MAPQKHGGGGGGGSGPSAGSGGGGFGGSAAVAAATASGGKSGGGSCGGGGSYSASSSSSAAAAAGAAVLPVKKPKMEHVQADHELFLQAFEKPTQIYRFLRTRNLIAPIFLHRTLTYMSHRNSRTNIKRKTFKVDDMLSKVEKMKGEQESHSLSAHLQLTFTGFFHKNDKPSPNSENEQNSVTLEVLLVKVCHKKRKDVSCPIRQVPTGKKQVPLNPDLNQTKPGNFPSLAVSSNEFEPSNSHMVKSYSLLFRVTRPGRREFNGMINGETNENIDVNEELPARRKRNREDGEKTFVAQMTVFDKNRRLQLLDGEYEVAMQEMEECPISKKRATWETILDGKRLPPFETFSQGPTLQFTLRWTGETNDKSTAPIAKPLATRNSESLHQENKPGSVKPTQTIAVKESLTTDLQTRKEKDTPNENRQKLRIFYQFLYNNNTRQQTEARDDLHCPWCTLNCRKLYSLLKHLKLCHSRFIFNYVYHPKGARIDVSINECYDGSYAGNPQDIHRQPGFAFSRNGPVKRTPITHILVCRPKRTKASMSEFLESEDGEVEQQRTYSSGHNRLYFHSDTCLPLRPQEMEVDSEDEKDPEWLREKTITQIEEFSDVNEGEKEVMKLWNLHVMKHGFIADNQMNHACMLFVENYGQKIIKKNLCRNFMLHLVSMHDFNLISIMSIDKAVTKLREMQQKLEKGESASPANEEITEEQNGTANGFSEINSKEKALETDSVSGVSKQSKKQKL
Sequence of Mutant type EZH2(Y641F) (Q09028 whole entry partner): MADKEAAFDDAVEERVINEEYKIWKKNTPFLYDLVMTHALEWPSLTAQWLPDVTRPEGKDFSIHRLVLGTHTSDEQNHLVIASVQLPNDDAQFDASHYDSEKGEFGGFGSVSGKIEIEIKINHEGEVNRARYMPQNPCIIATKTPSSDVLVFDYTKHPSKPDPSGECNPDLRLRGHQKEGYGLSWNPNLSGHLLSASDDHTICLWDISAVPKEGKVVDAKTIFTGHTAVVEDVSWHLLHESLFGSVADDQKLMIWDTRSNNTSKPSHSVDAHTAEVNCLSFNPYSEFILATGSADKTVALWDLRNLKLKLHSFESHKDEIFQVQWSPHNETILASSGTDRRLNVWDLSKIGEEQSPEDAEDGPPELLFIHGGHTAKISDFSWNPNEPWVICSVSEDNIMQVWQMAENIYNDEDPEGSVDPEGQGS
Sequence of Mutant type EZH2(Y641F) (Q6ZN18 whole entry partner): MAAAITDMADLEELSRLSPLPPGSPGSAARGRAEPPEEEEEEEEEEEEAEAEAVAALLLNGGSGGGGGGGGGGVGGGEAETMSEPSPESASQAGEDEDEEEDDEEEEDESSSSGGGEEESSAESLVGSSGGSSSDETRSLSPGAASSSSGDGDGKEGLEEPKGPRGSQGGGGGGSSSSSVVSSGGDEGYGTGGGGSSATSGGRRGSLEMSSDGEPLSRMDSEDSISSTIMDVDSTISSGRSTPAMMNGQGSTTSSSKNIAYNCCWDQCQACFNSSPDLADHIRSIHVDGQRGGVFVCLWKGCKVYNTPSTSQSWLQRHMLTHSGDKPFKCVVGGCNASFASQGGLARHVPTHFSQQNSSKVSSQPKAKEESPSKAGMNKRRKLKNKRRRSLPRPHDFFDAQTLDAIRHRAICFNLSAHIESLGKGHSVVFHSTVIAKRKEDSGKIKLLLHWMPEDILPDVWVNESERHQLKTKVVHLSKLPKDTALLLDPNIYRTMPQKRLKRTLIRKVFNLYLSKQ
Sequence of Mutant type EZH2(Y641N) (Q15910 whole entry Y641N): as the sequence (Q15910 whole entry Y641F) above, with F641N counted along it
Sequence of Mutant type EZH2(Y641N) (O75530 whole entry partner): as the sequence (O75530 whole entry partner) above
Sequence of Mutant type EZH2(Y641N) (Q15022 whole entry partner): as the sequence (Q15022 whole entry partner) above
Sequence of Mutant type EZH2(Y641N) (Q09028 whole entry partner): as the sequence (Q09028 whole entry partner) above
Sequence of Mutant type EZH2(Y641N) (Q6ZN18 whole entry partner): as the sequence (Q6ZN18 whole entry partner) above
Sequence of Mutant type EZH2(A677G) (Q15910 whole entry A677G): as the sequence (Q15910 whole entry Y641F) above, with F641Y, A677G counted along it
Sequence of Mutant type EZH2(A677G) (O75530 whole entry partner): as the sequence (O75530 whole entry partner) above
Sequence of Mutant type EZH2(A677G) (Q15022 whole entry partner): as the sequence (Q15022 whole entry partner) above
Sequence of Mutant type EZH2(A677G) (Q09028 whole entry partner): as the sequence (Q09028 whole entry partner) above
Sequence of Mutant type EZH2(A677G) (Q6ZN18 whole entry partner): as the sequence (Q6ZN18 whole entry partner) above
Sequence of wild-type EZH2 (Q15910 whole entry): as the sequence (Q15910 whole entry Y641F) above, with F641Y counted along it
Sequence of wild-type EZH2 (O75530 whole entry partner): as the sequence (O75530 whole entry partner) above
Sequence of wild-type EZH2 (Q15022 whole entry partner): as the sequence (Q15022 whole entry partner) above
Protocol for wild-type EZH2: 25 μL of reaction solution was transferred to a scintillation plate, which was incubated at room temperature for 1 hour (h) and washed with deionized water and 0.1% Tween 20 for three times. A PerkinElmer liquid scintillation/luminescence counter was used to read the value, and GraphPad Prism 5 was used to calculate the median inhibitory concentration (IC50) of the compounds.

Regarding `CCN(c1cc(-c2ccc3c(c2)NC(=O)C32CCOCC2)cc(C(=O)NCc2c(OC)cc(C)[nH]c2=O)c1C)C1CCC(N(C)C)CC1` (stereo not drawn) [Example 100], the pIC50 on wild-type EZH2 was 8.98; in data set [1] it was 8.56; in data set [2], 8.55; on Mutant type EZH2(Y641N), 9.38; at Mutant type EZH2(A677G) (setting [4]), 9.11; on Mutant type EZH2(Y641F), 9.10.

`CCN(c1cc(-c2ccc3c(c2)NC(=O)C32CCC(F)(F)CC2)cc(C(=O)NCc2c(C)cc(C)[nH]c2=O)c1C)C1CCOCC1` [Example 91, 5-(4,4-difluoro-2′-oxospiro[cyclohexane-1,3′-dihydroindole]-6′-yl)-N-((4,6-dimethyl-2-oxo-1,2-dihydropyridin-3-yl)methyl)-3-(ethyl(tetrahydro-2H-pyran-4-yl)amino)-2-methylbenzamide]: the pIC50 is 9.02 on wild-type EZH2 (setting [5]); 8.97 in data set [1]; 8.73 in data set [2]; 9.62 on Mutant type EZH2(Y641N); 9.15 on Mutant type EZH2(A677G) (setting [4]); 9.31 at Mutant type EZH2(Y641F).

As for `CCN(c1cc(-c2ccc3c(c2)NC(=O)C32CCOCC2)cc(C(=O)NCc2c(OC)cc(C)[nH]c2=O)c1C)C1CCC(N(C)CCOC)CC1` (stereo not drawn) [Example 120, 3-(Ethyl(4-((2-methoxyethyl)(methyl)amino)cyclohexyl)amino)-N-((4-methoxy-6-methyl-2-oxo-1,2-dihydropyridin-3-yl)methyl)-2-methyl-5-(2-oxo-2′,3′,5′,6′-tetrahydrospiro[dihydroindole-3,4′-pyran]-6-yl)benzamide], the pIC50 at wild-type EZH2 (setting [5]) was 8.90; in data set [1] it was 8.53; in data set [2], 8.35; at Mutant type EZH2(Y641N), 9.32; on Mutant type EZH2(A677G) (setting [4]) it was 9.28; at Mutant type EZH2(Y641F) it was 9.17.

As for `CCN(c1cc(-c2ccc3c(c2)C2(CCC(F)CC2)C(=O)N3)cc(C(=O)NCc2c(C)cc(C)[nH]c2=O)c1C)C1CCOCC1` (stereo not drawn) [Example 119, 5-(4-Fluoro-2′-carbonylspiro[cyclohexano-1,3′-dihydroindole]-5′-yl)-N-((4,6-dimethyl-2-carbonyl-1,2-dihydropyridin-3-yl)methyl)-3-(ethyl(tetrahydro-2H-pyran-4-yl)amino)-2-methylbenzamide], the pIC50 against wild-type EZH2 is 9.01; on Mutant type EZH2(Y641N) it was 9.20; against Mutant type EZH2(A677G), 9.12; at Mutant type EZH2(Y641F), 9.02. The IC50 is 3.52 nM in data set [1] (read-out: Pfeiffer Proliferation IC50 Nanomoles per Liter (nM)) and 4.15 nM in data set [2] (KARPAS-422, read-out: Karpas422 Proliferation IC50 Nanomoles per Liter (nM)).

As to `CCN(c1cc(-c2ccc3c(c2)NC(=O)C32CCOCC2)cc(C(=O)NCc2c(C)cc(C)[nH]c2=O)c1C)C1CC(C)OC(C)C1` (stereo not drawn) [Example 104, N-((4,6-Dimethyl-2-oxo-1,2-dihydropyridin-3-yl)methyl)-3-(ethyl(2,6-dimethyltetrahydro-2H-pyran-4-yl)amino)-2-methyl-5-(2-oxo-2′,3′,5′,6′-tetrahydrospiro[dihydroindole-3,4′-pyran]-6-yl)benzamide], the pIC50 in data set [1] was 8.76; in data set [2], 8.74; on Mutant type EZH2(Y641N), 9.72; at Mutant type EZH2(A677G) (setting [4]), 9.57; at Mutant type EZH2(Y641F), 9.51.

Consider `CCN(c1cc(-c2cc3c(cc2F)CCC32CCOCC2)cc(C(=O)NCc2c(C)cc(C)[nH]c2=O)c1C)C1CCOCC1` [Example 24, N-((4,6-dimethyl-2-carbonyl-1,2-dihydropyridin-3-yl)methyl)-3-(ethyl(tetrahydro-2H-pyran-4-yl)amino)-5-(5-fluoro-2,2′,3,3′,5′,6′-hexahydrospiro[indene-1,4′-pyran]-6-yl)-2-methylbenzamide], for which the pIC50 in data set [1] was 10.00; in data set [2], 9.39; on Mutant type EZH2(Y641N), 9.64; on Mutant type EZH2(A677G) (setting [4]), 9.39; on Mutant type EZH2(Y641F), 9.25. For the same compound, the AUC in data set [3] (setting [6]) was 943 ng·h/mL; in data set [3] (setting [8]), 1350 ng·h/mL. For the same compound, the half-life in data set [3] (setting [7]) was 1.08 h. Besides, in data set [3] (setting [9]), the Cmax is 479 ng/mL. In data set [3] (setting [10]), the bioavailability came out at 28.7%.

In the case of `CCN(c1cc(-c2ccc3c(c2)NCC32CCOCC2)cc(C(=O)NCc2c(C)cc(C)[nH]c2=O)c1C)C1CCNCC1` [Example 6, N-((4,6-dimethyl-2-oxo-1,2-dihydropyridin-3-yl)methyl)-3-(ethyl(piperidin-4-yl)amino)-2-methyl-5-(2′,3′,5′,6′-tetrahydrospiro[dihydroindole-3,4′-pyran]-6-yl)benzamide], the pIC50 in data set [1] was 8.94; in data set [2], 8.71; on Mutant type EZH2(Y641N) it was 10.15; at Mutant type EZH2(A677G) (setting [4]) it was 9.70; at Mutant type EZH2(Y641F) it was 9.70. Also, the AUC in data set [3] (setting [6]) was found to be 936 ng·h/mL; in data set [3] (setting [8]) it was 1190 ng·h/mL. Further, the half-life in data set [3] (setting [7]) was 1.26 h. Also, the Cmax in data set [3] (setting [9]) is 494 ng/mL. Further, the bioavailability in data set [3] (setting [10]) worked out at 25.5%.

Consider `CCN(c1cc(-c2ccc3c(c2)NC(=O)C32CCOCC2)cc(C(=O)NCc2c(C)cc(C)[nH]c2=O)c1C)C1CCC(N(C)C2COC2)CC1` (stereo not drawn) [Example 121, N-((4,6-dimethyl-2-oxo-1,2-dihydropyridin-3-yl)methyl)-3-(ethyl(4-(methyl(oxetan-3-yl)amino)cyclohexyl)amino)-2-methyl-5-(2-oxo-2′,3′,5′,6′-tetrahydrospiro[dihydroindole-3,4′-pyran]-6-yl)benzamide], for which the pIC50 was 8.98 on wild-type EZH2 (setting [5]); 8.63 in data set [1]; 8.45 in data set [2]; 9.28 on Mutant type EZH2(Y641N); 9.17 at Mutant type EZH2(A677G) (setting [4]); 9.13 on Mutant type EZH2(Y641F).

As to `CCN(c1cc(-c2ccc3c(c2)NC(=O)C32CCOCC2)cc(C(=O)NCc2c(C)cc(C)[nH]c2=O)c1C)C1CCC(N(C)C)CC1` (stereo not drawn) [Example 98, N-((4,6-Dimethyl-2-oxo-1,2-dihydropyridin-3-yl)methyl)-3-((ethyl)(4-dimethylamino-cyclohexyl)amino)-2-methyl-5-(2-oxo-2′,3′,5′,6′-tetrahydrospiro[dihydroindole-3,4′-pyran]-6-yl)benzamide], the pIC50 on wild-type EZH2 (setting [5]) was 9.17; in data set [1], 8.97; in data set [2] it was 8.65; at Mutant type EZH2(Y641N), 9.68; on Mutant type EZH2(Y641F), 9.44.

As for `CCN(c1cc(-c2ccc3c(c2)NC(=O)C32CCOCC2)cc(C(=O)NCc2c(OC)cc(C)[nH]c2=O)c1C)C1CCC(N(C)C2COC2)CC1` (stereo not drawn) [Example 122, 3-(Ethyl(4-(methyl(oxetan-3-yl)amino)cyclohexyl)amino)-N-((4-methoxy-6-methyl-2-oxo-1,2-dihydropyridin-3-yl)methyl)-2-methyl-5-(2-oxo-2′,3′,5′,6′-tetrahydrospiro[dihydroindole-3,4′-pyran]-6-yl)benzamide], the pIC50 at wild-type EZH2 (setting [5]) was 9.06; in data set [1], 8.54; in data set [2], 8.61; on Mutant type EZH2(Y641N), 9.68.

As for `CCN(c1cc(-c2ccc3c(c2)NC(=O)C32CCOCC2)cc(C(=O)NCc2c(C)cc(C)[nH]c2=O)c1C)C1CCN(C2COC2)CC1` [Example 82, N-((4,6-dimethyl-2-oxo-1,2-dihydropyridin-3-yl)methyl)-2-methyl-3-(ethyl(1-(oxetan-3-yl)piperidin-4-yl)amino)-5-(2-oxo-2′,3′,5′,6′-tetrahydrospiro[dihydroindole-3,4′-pyran]-6-yl)benzamide], the pIC50 at wild-type EZH2 (setting [5]) is 9.08; in data set [1] it was 8.55; in data set [2] it was 8.44; on Mutant type EZH2(Y641N), 9.80; on Mutant type EZH2(Y641F), 9.28.

With `CCN(c1cc(-c2ccc3c(c2)CCC32CCOCC2)cc(C(=O)NCc2c(OC)cc(C)[nH]c2=O)c1C)C1CCOCC1` [Example 113, 3-(Ethyl(tetrahydro-2H-pyran-4-yl)amino)-5-(2,2′,3,3′,5′,6′-hexahydrospiro[indene-1,4′-pyran]-5-yl)-N-((4-methoxy-6-methyl-2-oxo-1,2-dihydropyridin-3-yl)methyl)-2-methylbenzamide], the pIC50 is 8.78 in data set [1]; 8.60 in data set [2]; 9.57 on Mutant type EZH2(Y641N); 9.42 at Mutant type EZH2(A677G) (setting [4]); 9.27 on Mutant type EZH2(Y641F).

On to `CCN(c1cc(-c2ccc3c(c2)C=CC32CCN(C(C)C)CC2)cc(C(=O)NCc2c(OC)cc(C)[nH]c2=O)c1C)C1CCOCC1` [Example 37, 3-(ethyl(tetrahydro-2H-pyran-4-yl)amino)-5-(1′-isopropylspiro[indene-1,4′-piperidine]-5-yl)-N-((4-methoxy-6-methyl-2-carbonyl-1,2-dihydropyridin-3-yl)methyl)-2-methylbenzamide], for which the pIC50 at wild-type EZH2 (setting [5]) is 9.22; in data set [1] it was 9.06; in data set [2] it was 9.02; on Mutant type EZH2(Y641N), 9.64; at Mutant type EZH2(Y641F), 9.27. The values for the AUC in data set [3] (setting [11]) and in data set [3] (setting [12]) were 903 ng·h/mL and 1540 ng·h/mL, respectively. Moreover, the half-life in data set [3] (setting [11]) was 1.25 h. Also, the Cmax in data set [3] (setting [12]) was found to be 444 ng/mL. The bioavailability in data set [3] (setting [12]) was 34.1%.
